Data: patent US10787419B2, “Cannabinoid receptor mediating iminopyrazole compounds” (The United States of America, as represented by the …, priority 2012, dated 2020)
pKi: −log10 of the molar value.

Columns and labels:
DIO mice = test: mice with diet-induced obesity (DIO) treated orally for 14 days; assay type: in vivo
Protocol: Glucose tolerance and insulin sensitivity were determined on the last 2 days of treatment, using i.p. glucose tolerance and insulin sensitivity tests.

iNOS = iNOS (Mus musculus (Mouse), UniProt P29477); test: iNOS activity in lung homogenates from LPS-treated mouse; assay type: biochemical
Protocol: Cellular iNOS activity was determined after replacing growth medium with reaction mixtures containing appropriate ligands (100 nM). ^& Mice were treated in vivo with vehicle or LPS (25 mg/kg, ip) and sacrificed 6 h later. Crude homogenate prepared from lung were incubated with the indicated ligands and iNOS activity was determined using a radioactivity-based assay.

ZDF rats = test: Zucker diabetic fatty (ZDF) rat model of type 2 diabetes; assay type: in vivo; details: 10 mg/kg/day oral gavage, 7 days
[1] = test system: CCl4-induced liver fibrosis; test: CCl4-induced liver fibrosis model in mice; assay type: in vivo
Protocol: CCL-induced liver fibrosis was generated by intraperitoneal injection of CCL4 (1 ml/kg, diluted 1:10 corn oil), twice weekly for 8 weeks. […] Data represent mean±SEM from 7-8 mice per group. *P<0.05 relative to control. ^#indicates significant treatment effect (P<0.05) relative to CCl4-treated vehicle group.
Fibrosis results from excessive extracellular matrix deposition by myofibroblasts accompanying chronic inflammation and wound healing, and is a key pathogenic process in many organs, including kidneys, lung, and liver.

[2] = in vivo metabolism, metabolite generation in plasma by LC-MS/MS; details: 1 h after oral 10 mg/kg in mice
CB1 = CB1 (Mus musculus (Mouse), UniProt P47746); test: radioligand displacement assay in mouse brain membranes (Ki CB1); assay type: binding
[3] = tissue levels in brain and plasma after administration to mice; details: 1 hour after 10 mg/kg to mice; indicating good oral bioavailability
recombinant human AMPK = test: recombinant AMPK activity assay; assay type: biochemical; details: rimonabant at 1 μM
Excerpt: Guanides and biguanides, such as metformin, are effective as antidiabetic agents linked to their AMPK activating properties (Hardie et al., Chem Biol. 2012, […]; 1222-1236). Guanidine-containing analogs in certain embodiments were screened for activation of recombinant human AMPK, using an assay kit (Cyclex, Nagona, Japan), as illustrated in FIG. 8.
Activators of AMP-activated protein kinase (AMPK), such as guanidines of biguanides such as metformin are useful for the treatment of diabetes owing to their AMPK activating property (Hardie, et al., Chem & Biol 2012, 19(10); 1222-1236). Guanidine analogues of certain embodiments were screened for AMPK activation by using a recombinant AMPK activity assay.

[4] = DIO mice, 10 mg/kg/day oral, 14 days
[5] = 10 mg/kg/day orally for 4 weeks

Sequence of CB1 (P47746 whole entry): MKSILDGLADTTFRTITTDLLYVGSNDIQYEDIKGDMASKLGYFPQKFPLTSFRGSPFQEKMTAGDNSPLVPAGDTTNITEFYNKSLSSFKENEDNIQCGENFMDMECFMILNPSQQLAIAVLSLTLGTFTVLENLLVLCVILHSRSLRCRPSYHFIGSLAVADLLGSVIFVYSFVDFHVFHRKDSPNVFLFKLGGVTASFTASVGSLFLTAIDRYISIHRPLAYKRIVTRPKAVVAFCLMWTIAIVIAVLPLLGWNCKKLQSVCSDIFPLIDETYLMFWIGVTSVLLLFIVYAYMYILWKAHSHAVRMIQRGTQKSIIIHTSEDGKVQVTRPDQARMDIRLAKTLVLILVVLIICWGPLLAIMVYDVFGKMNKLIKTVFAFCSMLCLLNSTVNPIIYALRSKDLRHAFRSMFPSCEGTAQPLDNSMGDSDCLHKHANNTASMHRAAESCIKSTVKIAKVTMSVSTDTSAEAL

Structure (SMILES): CC(=N)N/C(=N\S(=O)(=O)c1ccc(Cl)cc1)N1CC(c2ccccc2)C(c2ccc(Cl)cc2)=N1 (racemic) [Compound 2, 3-(4-chlorophenyl)-N′-((4-chlorophenyl)sulfonyl)-N-(1-iminoethyl)-4-phenyl-4,5-dihydro-1H-pyrazole-1-carboximidamine]
- hepatic TG (DIO mice; [4]): reduced
- hyperinsulinemia (DIO mice; [4]): abrogated
- hyperleptinemia (DIO mice; [4]): reduced
- food intake reduction (DIO mice; DIO mice, 10 mg/kg/day oral, during the first week): ~20%
- glucose intolerance and insulin resistance (DIO mice; DIO mice, 10 mg/kg/day oral, i.p. glucose tolerance and insulin sensitivity tests, last 2 days): nearly completely normalized
- In vivo Comments (DIO mice; mouse, in vivo): anti-diabetic anti-obesity
- inhibition at 1 µM (iNOS): ~48%
- blood glucose (ZDF rats): prevented the increase in blood glucose
- insulin and c-peptide levels (ZDF rats): prevented
- CCl4-induced collagen deposition / liver fibrosis by Sirius red and Masson's trichrome staining [1, 5]: more effective than rimonabant
- CCl4-induced elevation of iNOS immunostaining [1, 5]: attenuated
- α-SMA, Procollagen-1 and Fibronectin-1 mRNA [1, 5]: more effective than rimonabant
- in vivo metabolism [2]: underwent in vivo metabolism to liberate the amidine moiety and a metabolite

Structure (SMILES): NC=NC(=NS(=O)(=O)c1ccc(Cl)cc1)N1CC(c2ccccc2)C(c2ccc(Cl)cc2)=N1 (stereo not shown) [Compound 1]
- pKi (CB1; Table 2): 6.41

Structure (SMILES): CC(=N)N/C(=N\S(=O)(=O)c1ccc(Cl)cc1)N1C[C@H](c2ccccc2)C(c2ccc(Cl)cc2)=N1 [Compound 2E1]
- CCl4-induced collagen deposition / liver fibrosis by Sirius red and Masson's trichrome staining [1, 5]: more effective than rimonabant
- CCl4-induced elevation of iNOS immunostaining [1, 5]: dramatically attenuated
- anti-fibrotic efficacy in liver fibrosis ([1]; compared with rimonabant): higher anti-fibrotic efficacy than rimonabant
- plasma levels after oral or i.p. administration [3]: comparable

Structure (SMILES): N=C(N/C(=N\S(=O)(=O)c1ccc(Cl)cc1)N1CC(c2ccccc2)C(c2ccc(Cl)cc2)=N1)C1CC1 (stereo not shown) [Compound 4]
- pKi (CB1; Table 1): 7.89
- pKi (CB1; Table 2): 7.89

Structure (SMILES): N=C(N/C(=N\S(=O)(=O)c1ccc(Cl)cc1)N1CC(c2ccccc2)C(c2ccc(Cl)cc2)=N1)c1ccccc1 (stereo not shown) [Compound 8]
- pKi (CB1; Table 1): 7.59
- pKi (CB1; Table 2): 7.59

Structure (SMILES): N=C(N/C(=N\S(=O)(=O)c1ccc(Cl)cc1)N1CC(c2ccccc2)C(c2ccc(Cl)cc2)=N1)c1ccncc1 (stereo not shown) [Compound 12]
- pKi (CB1; Table 1): 7.47
- pKi (CB1; Table 2): 7.47

Structure (SMILES): CNC(N)=NC(=NS(=O)(=O)c1ccc(Cl)cc1)N1CC(c2ccccc2)C(c2ccc(Cl)cc2)=N1 (stereo not shown) [Compound 45]
- pKi (CB1; Table 2): 6.49

Structure (SMILES): N=C(N/C(=N\S(=O)(=O)c1ccc(Cl)cc1)N1CC(c2ccccc2)C(c2ccc(Cl)cc2)=N1)N1CCCC1 (stereo not shown) [Compound 55]
- pKi (CB1; Table 1): 6.62
- pKi (CB1; Table 2): 6.62

Structure (SMILES): NN/C(=N\S(=O)(=O)c1ccc(Cl)cc1)N1CC(c2ccccc2)C(c2ccc(Cl)cc2)=N1 (stereo not shown) [Compound 73]
- pKi (CB1; Table 1): 7.48
- pKi (CB1; Table 2): 7.48

Structure (SMILES): Cc1c(C(=O)NN2CCCCC2)nn(-c2ccc(Cl)cc2Cl)c1-c1ccc(Cl)cc1 [rimonabant, reference compound]
- CCl4-induced elevation of iNOS immunostaining [1, 5]: not by rimonabant
- AMPK activity (recombinant human AMPK): no effect
